Assay results taken from ChEMBL document CHEMBL1149836, “Antifungal metabolites from the plant endophytic fungus Pestalotiopsis foedan” (2008).

Key:
Assay type in all cases: functional
Candida albicans = experiment: Antifungal activity against Candida albicans ATCC 10231 at 100 ug/ml after 48 hrs by agar diffusion assay; settings: ATCC 10231, 48 h, read-out: IZ
Aspergillus fumigatus = experiment: Antifungal activity against Aspergillus fumigatus ATCC 10894 at 100 ug/ml after 48 hrs by agar diffusion assay; settings: ATCC 10894, 48 h, read-out: IZ
Geotrichum candidum = experiment: Antifungal activity against Geotrichum candidum AS2.498 at 100 ug/ml after 48 hrs by agar diffusion assay; settings: read-out: IZ

SMILES | zone of inhibition at 100 µg/mL (Candida albicans) | zone of inhibition at 100 µg/mL (Aspergillus fumigatus) | zone of inhibition at 100 µg/mL (Geotrichum candidum)
Cc1c(O)cc2c(c1O)C(=O)O[C@@H]2[C@H](C)O [PESTAPHTHALIDE A] | 13 mm | – | –
C[C@H]1CCC[C@@]2(CC3=C(CO2)C(=O)[C@](C)(O)[C@@H](O)C3)O1 [PESTAFOLIDE A] | – | 10 mm | –
Cc1c(O)cc2c(c1O)C(=O)O[C@H]2[C@H](C)O [PESTAPHTHALIDE B] | – | – | 11 mm
OC(Cn1cncn1)(Cn1cncn1)c1ccc(F)cc1F [FLUCONAZOLE] | 18 mm | 18 mm | 18 mm
